According to patent publication EP2264010A1, “Hetarylamidines” (Bayer CropScience AG, priority 2009, dated 2010):

Assays:
[1] = logP by HPLC on reversed-phase columns (C 18), EEC Directive 79/831 Annex V.A8; type: physicochemical; conditions: c18 reversed-phase hplc, reversed-phase (C 18), read-out: log p
Text: Die Messung der logP Werte erfolgte gemäß EEC Directive 79/831 Annex V.A8 durch HPLC (High Performance Liquid Chromatography) an reversed-phase Säulen (C 18), mit der nachfolgenden Methode: […]

[2] = system: ALOMY; experiment: Herbicidal activity, test type PE; type: in vivo; conditions: TEST-TYP PE, 320 G/HA
[3] = system: AMARE; experiment: Herbicidal activity, test type PE; type: in vivo; conditions: TEST-TYP PE; for pest or weed control at 320 g/ha: Amaranthus retroflexus, read-out: herbizide Wirkung AMARE
[4] = system: ECHCG; experiment: Herbicidal activity, test type PE; type: in vivo; conditions: TEST-TYP PE, 320 G/HA
[5] = system: LOLMU; experiment: Herbicidal activity, test type PE; type: in vivo; conditions: TEST-TYP PE, read-out: herbizide Wirkung LOLMU
[6] = system: MATIN; experiment: Herbicidal activity, test type PE; type: in vivo; conditions: TEST-TYP PE; for pest or weed control at 320 g/ha: read-out: herbizide Wirkung MATIN
[7] = system: SETVI; experiment: Herbicidal activity, test type PE; type: in vivo; conditions: TEST-TYP PE, read-out: herbizide Wirkung SETVI
[8] = system: STEME; experiment: Herbicidal activity, test type PE; type: in vivo; conditions: TEST-TYP PE, read-out: herbizide Wirkung STEME
[9] = system: VERPE; experiment: Herbicidal activity, test type PE; type: in vivo; conditions: TEST-TYP PE, read-out: herbizide Wirkung VERPE
[10] = system: VIOTR; experiment: Herbicidal activity, test type PE; type: in vivo; conditions: TEST-TYP PE; for pest or weed control at 320 g/ha: read-out: herbizide Wirkung VIOTR
[11] = system: Tetranychus urticae; experiment: Tetranychus test, OP-resistant (TETRUR spray treatment); type: in vivo; conditions: topical, bean leaf discs (Phaseolus vulgaris), read-out: Wirkung
Text: Zur Herstellung einer zweckmäßigen Wirkstoffzubereitung vermischt man 1 Gewichtsteil Wirkstoff mit den angegebenen Mengen Lösungsmittel und Emulgator und verdünnt das Konzentrat mit emulgatorhaltigem Wasser auf die gewünschte Konzentration.
Bohnenblattscheiben (Phaseolus vulgaris), die von allen Stadien der Gemeinen Spinnmilbe (Tetranychus urticae) befallen sind, werden mit einer Wirkstoffzubereitung der gewünschten Konzentration gespritzt.
Nach der gewünschten Zeit wird die Wirkung in % bestimmt. Dabei bedeutet 100 %, dass alle Spinnmilben abgetötet wurden; 0 % bedeutet, dass keine Spinnmilben abgetötet wurden.

[12] = system: AMARE; experiment: Herbicidal activity, test type PO; type: in vivo; conditions: TEST-TYP PO, 80 G/HA
[13] = system: VERPE; experiment: Herbicidal activity, test type PO; type: in vivo; conditions: TEST-TYP PO, 80 G/HA
[14] = system: VIOTR; experiment: Herbicidal activity, test type PO; type: in vivo; conditions: TEST-TYP PO, 80 G/HA
[15] = system: CYPES; experiment: Herbicidal activity, test type PE; type: in vivo; conditions: TEST-TYP PE, 320 G/HA
[16] = system: PHBPU; experiment: Herbicidal activity, test type PO; type: in vivo; conditions: TEST-TYP PO, 80 G/HA

Compound | chromatographic logP [1] | herbizide Wirkung ALOMY [2] | pest or weed control at 320 g/ha [3] [%] | herbizide Wirkung ECHCG [4] | pest or weed control at 320 g/ha [5] [%] | pest or weed control at 320 g/ha [6] [%] | pest or weed control at 320 g/ha [7] [%] | pest or weed control at 320 g/ha [8] [%] | pest or weed control at 320 g/ha [9] [%] | pest or weed control at 320 g/ha [10] [%] | mortality at 500 g/ha, 500 g/ha [11] [%] | herbizide Wirkung AMARE [12] | herbizide Wirkung VERPE [13] | herbizide Wirkung VIOTR [14] | herbizide Wirkung CYPES [15] | herbizide Wirkung PHBPU [16] | herbizide Wirkung AMARE ([3]; 320 G/HA) | herbizide Wirkung MATIN ([6]; 320 G/HA) | herbizide Wirkung VIOTR ([10]; 320 G/HA)
CCN(C)C=Nc1ncc(Cl)cc1-c1ccc(F)c(C(F)(F)F)c1 [compound 14] | 2.21 | 90 | 90 | 80 | 100 | 100 | 100 | 85 | 90 | 90 |  |  |  |  |  |  |  |  | 
CCN(C)C=Nc1ncc(Cl)cc1-c1ccc(C(F)(F)F)c(Cl)c1 [compound 24] | 2.88 |  |  |  |  |  |  |  |  |  | > 80 |  |  |  |  |  |  |  | 
CCN(C)C=Nc1ncc(Cl)cc1-c1cccc(C(F)(F)F)c1 [compound 33] |  | 80 | 100 |  |  | 80 | 80 | 80 | 100 | 100 | > 80 | 80 | 80 | 90 |  |  |  |  | 
CCN(C=Nc1ncc(Cl)cc1-c1cccc(C(F)(F)F)c1)CC [compound 36] |  |  |  |  | 80 |  | 90 |  | 90 | 100 |  |  |  |  | 100 |  |  |  | 
FC(F)(F)c1cccc(-c2cc(Cl)cnc2N=CN2CCCC2)c1 [compound 38] |  |  | 80 |  |  |  | 90 |  |  |  |  |  |  |  | 100 |  |  |  | 
CCN(C)C=Nc1ncc(-c2ccc(F)c(C(F)(F)F)c2)cc1C [compound 66] |  | 80 | 90 | 90 | 90 | 90 | 100 | 90 | 90 | 90 |  |  |  | 80 |  | 80 |  |  | 
Cc1cc(-c2ccc(F)c(C(F)(F)F)c2)cnc1N=CN(C)C [compound 181] |  |  |  |  |  |  |  |  |  |  |  | 80 | 80 |  |  | 90 | 100 | 90 | 90
